Measured values: patent US5707620A (priority 1995, dated 1998)
“Also recorded” adds a separate entry of the source. *1 amine or outer side, *2 acyl side, *3 side chain or, on linkers, in order; H or OH if unused. Where a SMILES comes first, the peptide text is derived from it. Where no end group is shown, it is not given here. [ ]: non-standard residue; d: D form. The star is where a group is joined. pNA = O=[N+]([O-])c1ccc(N*)cc1; Tos = Cc1ccc(S(=O)(=O)*)cc1; CO = O=C([*:1])[*:2]

Tests used:
[1] = test system: sheep red blood cells; type: cell-based
[2] = target: T1, Lys-gingipain (Porphyromonas gingivalis, UniProt B2RLK2, A715G/D467N/G568E/I573V/L455V); type: biochemical
[3] = test system: Arg-gingipain; type: biochemical, Porphyromonas gingivalis
[4] = target: T1, Lys-gingipain; type: biochemical; remark: listed apart in the source
[5] = test system: anti-protein antibodies; details: rabbit, in vivo
[6] = test system: anti-peptide antibody; details: rabbit, in vivo
[7] = target: T1, Lys-gingipain; type: biochemical; remark: listed apart in the source
[8] = test system: Human plasma; details: in vivo
[9] = test system: Arg-gingipain; details: cited from earlier work

Cc1ccc(S(=O)(=O)N[C@@H](CCCCN)C(=O)CCl)cc1 [TLCK, tosyl-L-lysine chloromethyl ketone]
Hemagglutinating Titer of Gingipain-1 with effector [1]: NHA | effect on the hemagglutinating activity of purified fractions (in words) [1]: neither did treatment by the irreversible proteinase inhibitor TLCK | % Activity [2]: 0% | inhibition of Lys-gingipain activity (in words) [2]: effective inhibitors of both enzymes; also recorded: sensitivity | inhibition of Arg-gingipain (in words) [3]: effective inhibitors of both enzymes

N=C(N)c1ccc(N)cc1 [p-Aminobenzamidine]
% Activity [2]: 100% | inhibition of Lys-gingipain activity (in words) [2]: failed to inhibit | inhibition of Arg-gingipain (in words) [3]: effective inhibitors

Cc1ccc(S(=O)(=O)NCC(=O)N2CCC[C@H]2C(=O)N[C@@H](CCCCN)C(=O)Nc2ccc([N+](=O)[O-])cc2)cc1 [N-p-tosyl-Gly--Pro--Lys--pNa, N-p-tosyl-Gly-Pro-Lys-pNa] (Tos-Gly-Pro-Lys-pNA)
Vmax [4]: 215 mmol/min | ranking as substrate by ratio Vmax/Km [4]: best substrate

CC(C)[C@H](NC(=O)[C@H](CCCNC(=N)N)NC(=O)N[C@@H](Cc1ccccc1)C(=O)O)C(=O)N[C@H](C=O)CCCNC(=N)N [Antipain] ({Phe-CO}-Arg-Val-Arg-aldehyde)
% Activity [2]: 98% | inhibition of Lys-gingipain activity (in words) [2]: failed to inhibit; also recorded: not sensitive to inhibition; also recorded: resistant to inhibition | inhibition of Arg-gingipain (in words) [3]: effective inhibitors

[Cl-].[Cl-].[Zn+2] [ZnCl2]
inhibition of Lys-gingipain activity (in words) [2]: failed to inhibit | inhibition of Arg-gingipain (in words) [3]: effective inhibitors

MAP-attached peptide: first 15 N-Terminal amino acids of 60 kDa catalytic subunit attached to the multiple antigen peptide (MAP) resin (DVYTDHGDLYNTPVR; not fully specified)
antibody response against the protein [5]: quite low | anti-peptide antibody titer [6]: high

N[C@@H](CS)C(=O)O [cysteine]
Hemagglutinating Titer of Gingipain-1 with effector [1]: NHA | effect on the hemagglutinating activity of purified fractions (in words) [1]: no effect | concentration required for full activity [7]: 50 mM | effect on enzyme [7]: denatured | effectiveness as reducing agent for activation of the enzyme [7]: most effective reducing agent | time after which activity could be detected [7]: 30 s | time to full activation [7]: 5 min

CCN1C(=O)C=CC1=O [N-Ethylmaleimide]
inhibition of Lys-gingipain activity (in words) [2]: inhibited

CC(C)[C@@H](N)C(=O)N[C@@H](Cc1ccccc1)C(=O)N[C@@H](CCCCN)C(=O)Nc1ccc([N+](=O)[O-])cc1 [HD--Val--Phe--Lys--pNa, H-D-Val-Phe-Lys-pNa] (H-[dV]-Phe-Lys-pNA)
Vmax [4]: 180 mmol/min

O=C(O)CN(CCN(CC(=O)O)CC(=O)O)CC(=O)O [EDTA, ethylenediamine-tetraacetic acid]
% Activity [2]: 90% | inhibition of Lys-gingipain activity (in words) [2]: failed to inhibit; also recorded: not sensitive to inhibition; also recorded: resistant to inhibition; also recorded: insensitive | inhibition of Arg-gingipain (in words) [3]: effective inhibitors

NCCCC[C@H](N)C(=O)O [lysine]
Hemagglutinating Titer of Gingipain-1 with effector [1]: NHA

CC(C)C[C@H](NC(=O)[C@H](N)C(C)C)C(=O)N[C@@H](CCCCN)C(=O)Nc1ccc([N+](=O)[O-])cc1 [HD--Val--Leu--Lys--pNa, D-Val-Leu-Lys-pNA] (H-[dV]-Leu-Lys-pNA)
Vmax [4]: 133 mmol/min

CC(=O)N[C@@H](CC(C)C)C(=O)N[C@@H](CC(C)C)C(=O)N[C@H](C=O)CCCNC(=N)N [Leupeptin]
% Activity [2]: 100% | inhibition of Lys-gingipain activity (in words) [2]: failed to inhibit; also recorded: not sensitive to inhibition; also recorded: resistant to inhibition; also recorded: insensitive | inhibition of Arg-gingipain (in words) [3]: effective inhibitors

O=C(O)CI [Iodoacetate]
inhibition of Lys-gingipain activity (in words) [2]: inhibited; also recorded: sensitivity

NC(=O)CI [Iodoacetamide]
inhibition of Lys-gingipain activity (in words) [2]: inhibited; also recorded: sensitivity

CN1C(=O)C=CC1=O [N-methylmaleimide]
inhibition of Lys-gingipain activity (in words) [2]: sensitivity

c1cnc2c(c1)ccc1cccnc12
effect on VPE by Lys-gingipain complex-treated human plasma [8]: increased

O=S(=O)(F)Cc1ccccc1 [Phenylmethylsulfonyl fluoride]
% Activity [2]: 100% | inhibition of Lys-gingipain activity (in words) [2]: not sensitive to inhibition; also recorded: resistant to inhibition

NCCCC[C@H](NC(=O)OCc1ccccc1)C(=O)Nc1ccc([N+](=O)[O-])cc1 [Z--L--Lys--pNa, Z-L-Lysine-p-Nitroanilide]
Vmax [4]: 40 mmol/min

CC(C)C[C@H](NC(=O)[C@H]1O[C@@H]1C(=O)O)C(=O)NCCCCN=C(N)N [E-64, trans-epoxysuccinyl-L-leucylamide-(4-guanidino) butane]
% Activity [2]: 100% | inhibition of Lys-gingipain activity (in words) [2]: failed to inhibit Lys-gingipain at all; also recorded: not sensitive to inhibition; also recorded: resistant to inhibition | inhibition of Arg-gingipain, previously shown [9]: inhibit Arg-gingipain, but not in the normal equimolar manner

NC(N)=NCCCC(NC(=O)C1CCCN1C(=O)C(N)Cc1ccccc1)C(=O)CCl (stereo not drawn) [FPRCK, Phe-Pro-Arg-CK]
% Activity [2]: 5% | inhibition of Lys-gingipain activity (in words) [2]: effective inhibitors of both enzymes; also recorded: sensitivity | inhibition of Arg-gingipain (in words) [3]: effective inhibitors of both enzymes

N=C(N)NCCC[C@H](N)C(=O)O [arginine]
Hemagglutinating Titer of Culture fluid with effector [1]: NHA | Hemagglutinating Titer of Gingipain-1 with effector [1]: NHA | Hemagglutinating Titer of HGP with effector [1]: NHA | Hemagglutinating Titer of Lys-gingipain with effector [1]: NHA | effect on the hemagglutinating activity of purified fractions (in words) [1]: inhibited by arginine

NCC(=O)NCC(=O)O [Gly--Gly, Glycyl-glycine] (H-Gly-Gly-OH)
% Activity [2]: 50% | inhibition of Lys-gingipain activity (in words) [2]: inhibitory; also recorded: inhibited | stimulation of hydrolysis of Bz-L-Arg-pNa by Arg-gingipain [3]: strongly stimulates

B1: soybean trypsin inhibitor: soybean trypsin inhibitor (protein, UniProt P01070 25-205, looked up)
Trypsin inhibitor A: DFVLDNEGNPLENGGTYYILSDITAFGGIRAAPTGNERCPLTVVQSRNELDKGIGTIISSPYRIRFIAEGHPLSLKFDSFAVIMLCVGIPTEWSVVEDLPEGPAVKIGENKDAMDGWFRLERVSDDEFNNYKLVFCPQQAEDDKCGDIGISIDHDDGTRRLVVSKNKPLVVQFQKLDKESL
effect on VPE by Lys-gingipain complex-treated human plasma [8]: inhibited
